Data on one compound can be found in patent US20120270935A1, “FORMULATIONS” (priority 2009, published 2012).

In assay [1] the test system is S. epidermidis NCTC 11047. The experiment in a line: Disc diffusion assay (DDA). It counts as cell-based, Staphylococcus epidermidis. Particulars: 200 μg per disc; Mueller-Hinton agar pH 7.0; overnight at 37° C. in air. The source says:
(§1) (a) staphylococci. The Staphylococcus aureus strain used was ATCC 29213. S. aureus and other staphylococci are common causes of a wide range of skin, skin structure and wound infections; S. aureus is also known to exacerbate eczema. The ATCC 29213 strain is known to be susceptible to beta-lactam antibiotics such as methicillin. The Staphylococcus epidermidis strain used was NCTC 11047. Staph. epidermidis forms part of the resident flora of skin and is an opportunistic pathogen which can cause biofilms to grow for instance on plastic surgical implants such as catheters. Unless otherwise stated, the staphylococci were cultured and maintained on Mueller-Hinton Medium (agar and broth) at pH 7.2; cultures were incubated aerobically at 37° C. for 19-20 hours, at pH 7 (±0.2). (b) C. striatum NCTC 764. […]
A sterile paper disc was impregnated with a sample of the test compound in a suitable solvent and 30 minutes allowed for the solvents to evaporate (where possible). […] The diameter of this zone of “inhibition” was measured using a ProtoCOL™ automated zone sizer (Synbiosis, Cambridge, UK). […]
(§2) Example 8 was repeated (except for the supplemented DDA assays), using S. aureus ATCC 29213 as the test organism. […] In the DDA assays, 200 μg is of each compound was loaded onto each disc: the culture medium was Mueller-Hinton agar at pH 7.0, and results were recorded after overnight incubation at 37° C. in air. […]

A further assay relates to P. granulosum. As to the kind of experiment: Agar dilution MIC assay, panel of propionibacterium strains. It counts as cell-based, Propionibacterium granulosum. The settings on record: resistance MLSK. How it is done:
(§3) This is a standard international method for quantitatively assessing the antimicrobial activity of a compound in a solid medium. The test compound was prepared to 40× the highest concentration required (eg 10 mg/ml for a final concentration of […]) and a series of doubling dilutions were performed in a suitable solvent. A set amount of these antimicrobial stock solutions was then added to molten agar medium (ca 55° C.), mixed thoroughly, poured into sterile Petri dishes and allowed to cool/set. The culture medium was as described above.
(§4) A Multipoint™ Inoculator (AQS Manufacturing Ltd, UK) was used to inoculate the plates by spotting the inocula onto the surface of the agar, delivering approximately 1 to 2 μl per spot (yielding 10^5 CFU (colony forming units) per spot).
(§5) The plate(s) were then incubated under the conditions described above, following which they were examined visually for signs of bacterial growth. The MIC value was ascertained when there was a marked reduction in, or total loss of, growth on the test plate at the lowest concentration as compared to that of the growth on the control plate.
(§6) The assays were conducted in triplicate and included a positive control (culture medium, diluting solvent and inoculum).
The activity (MIC by agar dilution) of copper usnate was determined against a panel of different propionibacterium strains. […]

In the next assay the test system is P. acnes. Described as above. It counts as cell-based, Propionibacterium acnes. How it is done: as §3, §4, §5, §6
The activity (MIC by agar dilution) of copper usnate was determined against a panel of different propionibacterium strains. The culture medium was Wilkins-Chalgren agar, at pH 6.0. DMSO was used as the solvent. All tests were performed in triplicate.

The test system of assay [2] is S. epidermidis NCTC 11047. The experiment in a line: MBC assay. The class given is cell-based, Staphylococcus epidermidis. Particulars: Mueller-Hinton broth pH 7.0.
Description: as §1, with “764. Corynebacterium striatum is closely related to organisms (aerobic diphtheroids of the genus Corynebacterium) that cause body odour. It was cultured and maintained on Mueller-Hinton medium (agar and broth). All cultures were incubated aerobically at 37° C. for 72 hours, at pH 7 (±0.2).” for “764.”
as §2

The test system of another assay is S. pyogenes ATCC 12344. As to the kind of experiment: MIC assay. The settings on record: Mueller-Hinton broth pH 7.0. The class given is cell-based, Streptococcus pyogenes.

As for `CC(=O)c1c([O-])c(C)c([O-])c2c1OC1=CC(=O)C(C(C)=O)C(=O)C12C.[Cu+2]` (stereo not shown) [Copper usnate, copper (II) usnate], the DDA zone diameter in assay [1] was found to be 25.7 ± 0.6 mm. In addition, the MIC turned out to be 1.95 µg/mL in the assay on P. granulosum (P. granulosum PRP-005, Erm X); 1.95 µg/mL in the assay on P. granulosum (P. granulosum PRP-019, Erm X); 0.49 µg/mL against P. acnes (P. acnes NCTC 737, mutation None, resistance phenotype None); 0.49 µg/mL in the assay on P. acnes (P. acnes PRP-002, mutation 1058/2058, resistance Tet/MLS); 0.49 µg/mL in the assay on P. acnes (P. acnes PRP-003, mutation 1058, resistance Tet); 0.49 µg/mL in the assay with P. acnes (P. acnes PRP-004, mutation 1058, resistance Tet). Also, the MIC against P. acnes (P. acnes PRP-007, mutation Unknown, resistance Clin) turned out to be 0.49 µg/mL; against P. acnes (P. acnes PRP-010, Erm X, resistance MLSK), 0.49 µg/mL; with P. acnes (P. acnes PRP-017, mutation 2058, resistance MLS) it was 0.49 µg/mL; against P. acnes (P. acnes PRP-023, Erm X, resistance MLSK) it was 0.49 µg/mL; with P. acnes (P. acnes PRP-026, mutation 2059, resistance MLS), 0.49 µg/mL; against P. acnes (P. acnes PRP-039, mutation 2059, resistance Tet/MLS) it was 0.49 µg/mL. The MIC with P. acnes (P. acnes PRP-046, mutation None, resistance None) turned out to be 0.49 µg/mL; in the assay with P. acnes (P. acnes PRP-059, mutation 2058, resistance MLS), 0.49 µg/mL; against P. acnes (P. acnes PRP-101, mutation 1058/2059, resistance Tet/MLS) it was 0.49 µg/mL; with P. acnes (P. acnes PRP-102, mutation 1058/2059, resistance Tet/MLS), 0.49 µg/mL; in the assay with S. pyogenes ATCC 12344 it was 0.98 µg/mL. In addition, in assay [2], the MBC stood at 62.5 µg/mL.
